This is an account of results in patent publication US8063225B2, “Tricyclic compound derivatives useful in the treatment of neoplastic diseases, inflammatory disorders and immunomodulatory disorders” (Chembridge Corporation, priority 2006, dated 2011).

One experiment has as its system Ba/F3. Kind of experiment: Cell proliferation inhibition, Cell Titer-Glo, Ba/F3. The following applies: Mus musculus, BaF3; cell proliferation assay, Ba/F3 cells. The experiment is classed as cell-based. The text has this: (§1) IGF1R and other tyrosine kinase inhibitors can inhibit the proliferation of certain cancer cell lines indicating their possible therapeutic utility for treating the corresponding cancer types. Cancer cell lines of interest and control normal lines, including CHO, HEK293, BA/F3, COLO205, PC3, DU145, MCF7, Panc1, ACHN, Hep G2, H460, K562, TT, U87-MG, CAOV-3, SK-MEL5, Karpas 299 and human multiple myeloma cell lines H929, MM1s, MM1r, UTMC2, CPM2, KMS11, My5, KMS12PE, My7, JJN3, KMS18, U266, SKMM2, RPMI-8226 are plated in white, clear-bottomed 384-well cell culture plates at 2500-5000 cells per well and supplied with dilutions of tested compounds After a desired period of time (typically 3 days), the number of viable cells is quantitated by using Cell Titer-Glo Luminescent Cell Viability Assay (Promega), a cell proliferation assay system based on detection of total amount of ATP present as a measure of cell metabolic activity. The plated cells are mixed with the Cell Titer-Glo developing reagent and counted in a luminescence multiwell plate reader according to the standard manufacturer's protocol to generate IC50 curves for cell proliferation inhibition. Results are typically reported as percent of growth (% viability =(OD72h(compound)−ODday0))/(OD72h(no compound)−ODday0). Alternatively, viable cells are quantitated by using the conventional colorimetric MTT assay. The MTT assay is based on the cleavage of the yellow tetrazolium salt MTT to purple formazan crystal by metabolic active cells. The formazan is then solubilized, and the concentration determined by optical density at 570 nm. The cells plated and incubated with a compound as described above are supplemented with the solution of MTT and incubated for 2-3 hours. The growth medium is removed and dimethyl sulfoxide is added into each well to dissolve the formazan. The absorbance is measured on an ELISA plate reader with a test wavelength of 570 nm and a background subtraction wavelength of 630 nm to obtain sample signal (OD570-OD630). […] The results are reported in terms of IC50 value for a particular compound and a cell line in the standard 3-day proliferation assay using Cell Titer-Glo. […] The results are reported in terms of IC50 value for a particular compound and a cell line in the standard 3-day proliferation assay using MTT assay.
(In general: In ATP-based viability assays light output follows the ATP content of the culture.)

Another experiment concerns the target T1, Jak2 (Homo sapiens, UniProt O60674).
T1 construct: 6×His- or GST-tagged kinase domain fragments of the corresponding RTKs expressed in baculovirus system; host or cells: baculovirus system
Kind of experiment: Tyrosine kinase assay (Kinase-Glo or AlphaScreen), Jak2. The following applies: biochemical tyrosine kinase assay. On the procedure: (§2) To determine inhibition of several tyrosine kinases, such as IGF1R, InsR, Alk, TrkA and Jak2, kinase assays are conducted using either Kinase-Glo (Promega) or AlphaScreen (PerkinElmer) kinase assay platforms. The Kinase-Glo Luminescent Kinase Assay is a homogeneous method for measuring kinase activity by determining the amount of ATP remaining after a kinase reaction. The luminescent signal is proportional to the amount of ATP and inversely proportional to the amount of kinase activity. Tyrosine kinase PT66 AlphaScreen Assay is a high-sensitivity homogeneous, anti-phosphotyrosine antibody-mediated luminescent proximity method measuring, incorporation of phosphate in synthetic poly(Glu-Tyr) substrate. The kinase preparations used consist of purified recombinant, 6×His- or GST-tagged kinase domain fragments of the corresponding RTKs expressed in baculovirus system.
(§3) The IGF1R tyrosine kinase is assayed in Kinase-Glo ATP depletion assay using the synthetic polymer poly(Glu-Tyr, 4:1) (Sigma Chemicals) as a phosphoacceptor substrate. Each reaction mixture consists of a total volume of 10 μl and contains 40 ng of the enzyme, 5 μg of poly(Glu-Tyr), 10 μM of ATP and variable concentrations of test compounds. The mixtures also contain 50 mM Tris-HCl, pH 7.5; 5 mM MgCl2; 5 mM MnCl2; 2 mM DTT and 0.01% Tween 20. The reaction mixtures are incubated at 37° C. for 60 minutes and residual concentration of ATP in the mixture is determined by adding luciferase-containing Kinase-Glo (Promega) development reagent and counting luminescence levels using Fusion Universal Microplate Analyzer (PerkinElmer). Tested compounds are dissolved in dimethyl sulfoxide to a stock concentration of 10 mM and are typically evaluated in the assay at eight concentrations in 1 nM to 20 μM range, each in quadruplicate. […] IC50 values are derived by non-linear regression analysis using Prism 3.0 software (Graphpad Software). Other tyrosine kinases are assayed according to the same protocol after titrating amount of the enzyme to provide optimal signal-to-noise ratio and no more than 30% of total ATP consumption in the reaction conditions used.
(§4) The IGF1R tyrosine kinase is assayed in Phosphotyrosine (PT66 or PT 100) AlphaScreen chemiluminescent assay (PerkinElmer) according to the manufacturerer's recommendations. Each kinase reaction mixture consists of a total volume of 15 μl and contains 0.1-1 ng of the enzyme, 7 ng of biotinylated poly(Glu-Tyr) (Cis-Bio), 10 μM of ATP and variable concentrations of test compounds. The mixtures also contain 50 mM Tris-HCl, pH 7.5; 5 mM MgCl2; 5 mM MnCl2; 2 mM DTT and 0.01% Tween 20. The reaction mixtures are incubated at room temperature for 30 minutes. Ten (10) μl of the mixture of […] and donor beads (as supplied by the manufacturer) is then added to the reaction and the incubation is continued for an additional 60 minutes.
(In general: Kinase-Glo reads ATP consumption through a luciferase reaction.)

The next experiment relates to K562. Put plainly: Cell proliferation inhibition, Cell Titer-Glo, K562. In kind it is cell-based. The following applies: Homo sapiens; cell proliferation assay, K562 cells.
Description: as §1

The subject of another experiment is Karpas-299. Put plainly: Cell proliferation inhibition, Cell Titer-Glo, Karpas-299. The experiment is classed as cell-based. The following applies: Homo sapiens; cell proliferation assay, Karpas-299 cells.
Description: as §1

The next experiment deals with T2, InsR (Homo sapiens, UniProt P06213).
T2 construct: 6×His- or GST-tagged kinase domain fragments of the corresponding RTKs expressed in baculovirus system; host or cells: baculovirus system
Kind of experiment: Tyrosine kinase assay (Kinase-Glo or AlphaScreen), InsR. The following applies: biochemical tyrosine kinase assay. On the procedure: as §2, §3, §4

A further experiment deals with T3, Alk (Homo sapiens, UniProt Q9UM73).
T3 construct: 6×His- or GST-tagged kinase domain fragments of the corresponding RTKs expressed in baculovirus system; host or cells: baculovirus system
Kind of experiment: Tyrosine kinase assay (Kinase-Glo or AlphaScreen), Alk. The following applies: biochemical tyrosine kinase assay. The procedure: as §2, §3, §4

The target in a further experiment is T4, IGF1R tyrosine kinase (Homo sapiens, UniProt P08069).
T4 construct: 6×His- or GST-tagged kinase domain fragments of the corresponding RTKs expressed in baculovirus system; host or cells: baculovirus system
Kind of experiment: IGF1R tyrosine kinase assay (Kinase-Glo ATP depletion or PT66/PT100 AlphaScreen). The following applies: biochemical tyrosine kinase assay. On the procedure:
as §2, §3, §4

T2 sequence (P06213 1023-1298 limits assumed, species assumed): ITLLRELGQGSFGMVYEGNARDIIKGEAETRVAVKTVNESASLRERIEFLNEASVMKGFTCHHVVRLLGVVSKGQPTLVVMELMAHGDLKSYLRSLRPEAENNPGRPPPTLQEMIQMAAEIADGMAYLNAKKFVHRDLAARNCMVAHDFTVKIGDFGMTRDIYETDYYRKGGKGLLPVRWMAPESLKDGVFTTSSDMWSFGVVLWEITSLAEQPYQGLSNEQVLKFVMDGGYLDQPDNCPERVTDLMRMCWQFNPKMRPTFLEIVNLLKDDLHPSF
T1 sequence (O60674 849-1124 limits assumed, species assumed): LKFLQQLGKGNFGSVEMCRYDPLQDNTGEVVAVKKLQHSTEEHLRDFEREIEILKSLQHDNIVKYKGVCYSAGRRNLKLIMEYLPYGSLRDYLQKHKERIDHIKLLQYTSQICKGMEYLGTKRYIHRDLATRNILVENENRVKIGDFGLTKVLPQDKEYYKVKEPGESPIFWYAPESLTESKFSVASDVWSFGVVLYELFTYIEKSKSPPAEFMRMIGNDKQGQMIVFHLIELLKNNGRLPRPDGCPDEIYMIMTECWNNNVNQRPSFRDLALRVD
T3 sequence (Q9UM73 1116-1392 limits assumed, species assumed): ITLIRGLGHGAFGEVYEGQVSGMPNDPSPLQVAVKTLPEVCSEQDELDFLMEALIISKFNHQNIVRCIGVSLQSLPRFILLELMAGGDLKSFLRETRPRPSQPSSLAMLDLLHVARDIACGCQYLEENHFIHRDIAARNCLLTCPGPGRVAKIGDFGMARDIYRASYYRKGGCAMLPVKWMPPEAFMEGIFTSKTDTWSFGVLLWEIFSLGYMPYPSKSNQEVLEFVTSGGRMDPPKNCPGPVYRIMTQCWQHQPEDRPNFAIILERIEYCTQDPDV
T4 sequence (P08069 999-1274 limits assumed): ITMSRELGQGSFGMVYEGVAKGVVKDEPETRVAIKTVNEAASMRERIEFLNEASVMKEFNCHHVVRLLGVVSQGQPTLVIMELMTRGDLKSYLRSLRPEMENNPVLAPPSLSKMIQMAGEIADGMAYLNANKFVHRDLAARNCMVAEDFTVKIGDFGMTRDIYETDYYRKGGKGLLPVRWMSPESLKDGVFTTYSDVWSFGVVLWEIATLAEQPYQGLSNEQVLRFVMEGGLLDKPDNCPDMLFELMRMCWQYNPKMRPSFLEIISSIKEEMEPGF

What is called IC50 is the concentration that inhibits the measured activity by half. Lower therefore signals higher potency. For `CN1CCC(N2C(=O)c3cc4nc(-c5c(N[C@@H](CO)Cc6ccccc6)cc[nH]c5=O)[nH]c4cc3C2=O)CC1` [compound 5], the IC50 was 0.5 to 5 µM in the experiment on Ba/F3; 0.5 to 5 µM against Jak2; 0.5 to 5 µM in the experiment with K562; 0.5 to 5 µM in the experiment on Karpas-299; 0.5 to 5 µM against InsR; under 0.5 µM on Alk. Besides, the IC50 on IGF1R tyrosine kinase fell in the range of 0.5 to 5 µM.
On to `COc1ccc2c(ccn2C[C@H](O)CNc2cc[nH]c(=O)c2-c2nc3cc4c(cc3[nH]2)CN(C2CCN(C)CC2)C4=O)c1` [compound 170], for which the half-maximal inhibitory concentration (IC50) on Jak2 is 0.5 to 5 µM; on InsR, 0.5 to 5 µM; at Alk it was 5 to 15 µM; on IGF1R tyrosine kinase it was 5 to 15 µM.
Take `Cc1ccc(Cl)cc1OC[C@@H](O)CNc1ccnc(O)c1-c1nc2cc3c(cc2[nH]1)C(=O)N(C1CCN(C)CC1)C3=O` [compound 56]: the IC50 with Ba/F3, against Jak2, in the experiment with K562, in the experiment with Karpas-299, on InsR and on Alk was 0.5 to 5 µM in each case. The molecule also had a concentration for half-maximal inhibition (IC50) against IGF1R tyrosine kinase of 0.5 to 5 µM.
In the case of `Cc1c(Cl)cccc1OC[C@H](O)CNc1cc[nH]c(=O)c1-c1nc2c(C)c3c(cc2[nH]1)C(=O)N(C1CCN(C)CC1)C3=O` [compound 121], the IC50 was 0.5 to 5 µM in the experiment on Ba/F3; 0.5 to 5 µM at Jak2; 5 to 15 µM with Karpas-299; 0.5 to 5 µM against InsR; 0.5 to 5 µM against Alk; 0.5 to 5 µM against IGF1R tyrosine kinase.
For `COCCCN1C(=O)c2cc3nc(-c4c(NC[C@@H](O)COc5ccc(C)cc5C)cc[nH]c4=O)[nH]c3cc2C1=O` [compound 109], the IC50 in the experiment on Ba/F3 was over 15 µM; on Jak2, over 15 µM; with Karpas-299, 0.5 to 5 µM; at InsR it was over 15 µM; at Alk, over 15 µM; against IGF1R tyrosine kinase it was over 15 µM.
For `O=C1c2cc3nc(-c4c(NC[C@@H](O)c5cccc(Cl)c5)cc[nH]c4=O)[nH]c3cc2C(=O)N1CCc1cccnc1` [compound 27], the half-maximal inhibitory concentration (IC50) on Jak2, at InsR, against Alk and on IGF1R tyrosine kinase was over 15 µM in each case.
As to `Cc1ccc(OC[C@H](O)CNc2cc[nH]c(=O)c2-c2nc3cc4c(cc3[nH]2)C(=O)N(CCCN2CCCC2)C4=O)c(C)c1` [compound 48], the IC50 is 0.5 to 5 µM in the experiment with Ba/F3; 0.5 to 5 µM at Jak2; 0.5 to 5 µM in the experiment with Karpas-299; under 0.5 µM against InsR; 5 to 15 µM on Alk; under 0.5 µM on IGF1R tyrosine kinase.
As to `O=C1c2cc3nc(-c4c(NC[C@@H](O)c5cccc(Cl)c5)cc[nH]c4=O)[nH]c3cc2C(=O)N1CCc1c[nH]cn1` [compound 9], the IC50 at Jak2, against InsR, against Alk and against IGF1R tyrosine kinase was 0.5 to 5 µM in each case.
On to `O=C1c2cc3nc(-c4c(NC[C@@H](O)c5cccc(Cl)c5)cc[nH]c4=O)[nH]c3cc2C(=O)N1CC(O)CO` (some centres unmarked) [compound 46], for which the IC50 in the experiment on Ba/F3 is 5 to 15 µM; against Jak2, over 15 µM; in the experiment on Karpas-299 it was 5 to 15 µM; at InsR it was 0.5 to 5 µM; against Alk, over 15 µM; on IGF1R tyrosine kinase, under 0.5 µM.
With `O=C1c2cc3nc(-c4c(NC[C@@H](O)c5cccc(Cl)c5)cc[nH]c4=O)[nH]c3cc2C(=O)N1C(CO)CO` [compound 25], the concentration for half-maximal inhibition (IC50) was under 0.5 µM on Jak2, under 0.5 µM on InsR, 5 to 15 µM on Alk and under 0.5 µM against IGF1R tyrosine kinase.
In the case of `CN1CCC(N2C(=O)c3cc4nc(-c5c(NCC(O)c6ccncc6)cc[nH]c5=O)[nH]c4cc3C2=O)CC1` (centres unmarked) [compound 7], the IC50 on Jak2 was 0.5 to 5 µM; against InsR, 5 to 15 µM; at Alk, over 15 µM; at IGF1R tyrosine kinase, 0.5 to 5 µM.
Consider `COCCN1CCC(CN2C(=O)c3cc4nc(-c5c(NC[C@@H](O)c6cccc(Cl)c6)cc[nH]c5=O)[nH]c4cc3C2=O)CC1` [compound 24], for which the half-maximal inhibitory concentration (IC50) was 0.5 to 5 µM against Jak2, under 0.5 µM on InsR, 0.5 to 5 µM against Alk and under 0.5 µM at IGF1R tyrosine kinase.
With `Cc1c2c(cc3[nH]c(-c4c(NC[C@@H](O)COc5c(F)ccc(Cl)c5F)cc[nH]c4=O)nc13)C(=O)N(C1CCN(C)CC1)C2=O` [compound 122], the half-maximal inhibitory concentration (IC50) was over 15 µM in the experiment with Ba/F3; 0.5 to 5 µM on Jak2; over 15 µM in the experiment with Karpas-299; 0.5 to 5 µM against InsR; 5 to 15 µM against Alk; under 0.5 µM against IGF1R tyrosine kinase.
As to `O=C1c2cc3nc(-c4c(NC[C@@H](O)COc5c(F)ccc(Cl)c5F)cc[nH]c4=O)[nH]c3cc2C(=O)N1CC1CCN(CCO)CC1` [compound 120], the IC50 with Ba/F3 was 0.5 to 5 µM; on Jak2 it was 0.5 to 5 µM; with Karpas-299, 0.5 to 5 µM; against InsR it was under 0.5 µM; against Alk it was 0.5 to 5 µM; on IGF1R tyrosine kinase, under 0.5 µM.
For the molecule `O=C1CCCN1CCCN1C(=O)c2cc3nc(-c4c(NC[C@@H](O)c5cccc(Cl)c5)cc[nH]c4=O)[nH]c3cc2C1=O` [compound 47], the half-inhibitory concentration (IC50) lay in the range of 5 to 15 µM in the experiment on Ba/F3; 0.5 to 5 µM against Jak2; 5 to 15 µM in the experiment on Karpas-299; 0.5 to 5 µM against InsR; 5 to 15 µM against Alk; 0.5 to 5 µM against IGF1R tyrosine kinase.
Regarding `Cc1c(Cl)cccc1OC[C@H](O)CNc1cc[nH]c(=O)c1-c1nc2cc3c(cc2[nH]1)C(=O)N(CCCN1CCCC1)C3=O` [compound 115], the concentration for half-maximal inhibition (IC50) in the experiment with Ba/F3 was over 15 µM; on Jak2 it was 0.5 to 5 µM; in the experiment with Karpas-299, 5 to 15 µM; at InsR, under 0.5 µM; at Alk it was 0.5 to 5 µM; at IGF1R tyrosine kinase, under 0.5 µM.
With `O=C1c2cc3nc(-c4c(NC[C@@H](O)c5cccc(Cl)c5)cc[nH]c4=O)[nH]c3cc2C(=O)N1CCCn1ccnc1` [compound 45], the IC50 was in the range of 5 to 15 µM in the experiment on Ba/F3; 0.5 to 5 µM at Jak2; 5 to 15 µM with Karpas-299; 0.5 to 5 µM against InsR; 0.5 to 5 µM on Alk; 0.5 to 5 µM on IGF1R tyrosine kinase.
